Reference: patent US3956336A, “9-Alkoxy-5-methyl-6,7-benzomorphans” (Bristol-Myers Company, priority 1975, dated 1976)

Experiments:
Assay type in all cases: in vivo
[1] = tested on: phenylquinone induced writhing; experiment: Phenylquinone writhing, agonist activity, mouse; settings: subcutaneous, 50 percent reduction in number of writhing, as free base; for ED50: sc
Description: (§1) In vivo testing was conducted on various compounds of the instant invention in the form of their respective soluble salts to determine their agonist and/or antagonist properties. The figures reported are the number of milligrams/kilogram of body weight of compound that produced an agonist or antagonist effect in 50% of the mice and rats so tested (ED50). All data is obtained by subcutaneous administration.
(§2) ^1 A 50 percent reduction in number of phenylquinone induced writhing
(§3) (Siegmund, E. A. et al., Proc. Soc. Biol. & Med. 95, 729; 1957).

[2] = tested on: analgesic effect induced by morphine; experiment: animal or person; settings: subcutaneous, morphine 15 mg./kg. sc., 50 percent reduction of analgesic effect, as free base; for ED50: rat, read-out: ED50 Antagonist Activity, Morphine Antagonism Rat Tail Flick
Description: as §1
(15 mg./kg. sc.) as measured by the rat tail flick procedure (Harris, L.
S. and Pierson, A. K., J. Pharmacol. & Expt. Therap., 143, 141; 1964).

[3] = tested on: Straub Tail induced by oxymorphone; experiment: Antagonism of oxymorphone-induced Straub Tail; settings: mice, subcutaneous, oxymorphone 2 mg./kg. sc., as free base; for ED50: Mus musculus, read-out: ED50 Antagonist Activity, Oxymorphone Straub Tail
Description: as §1
^2 Antagonism of Straub Tail induced by oxymorphone (2 mg./kg. sc.) i

[4] = tested on: righting reflex loss induced by oxymorphone; experiment: animal or person; settings: rats, subcutaneous, oxymorphone 1.5 mg./kg. sc., as free base; for ED50: Rattus norvegicus, read-out: ED50 Antagonist Activity, Oxymorphone Narcosis
Description: as §1
^3 Antagonism of righting reflex loss induced by oxymorphone (1.5
mg./kg. sc.) in 50 percent of rats.

[5] = tested on: phenylquinone induced writhing; experiment: Phenylquinone writhing, agonist activity, rat; settings: subcutaneous, 50 percent reduction in number of writhing, as free base
Description: as §1, §2, §3

Row | SMILES | ED50 [1] | ED50 [2] | ED50 [3] | other results
1 | CCCC12CCN(CC3CC3)C(Cc3ccc(O)cc31)C2OC (racemic) [dl-XIIn, 2-cyclopropylmethyl-2'-hydroxy-9α-methoxy-5-propyl-6,7-benzomorphan] | 0.2 mg/kg | 0.033 mg/kg |  | 
2 | COC1(C)C2Cc3ccc(O)cc3C1(C)CCN2CC1CCC1 (racemic) [dl-XIIv, 2-Cyclobutylmethyl-5,9β-dimethyl-2'-hydroxy-9β-methoxy-6,7-benzomorphan] |  |  |  | ED50 Agonist Activity, Phenylquinone Writhing, Mouse [1]: 0.19 mg/kg; ED50 Antagonist Activity, Oxymorphone Straub Tail [3]: 7.5 mg/kg
3 | CO[C@H]1[C@H]2Cc3ccc(O)cc3[C@]1(C)CCN2CC1CC1 (relative stereo) [dl-XIIa, 2-Cyclopropylmethyl-2'-hydroxy-9α-methoxy-5-methyl-6,7-benzomorphan] | 0.087 mg/kg | 0.06 mg/kg | 0.24 mg/kg | ED50 [4]: 0.04 mg/kg; ED50 ([5]; sc): 0.034 mg/kg
4 | CO[C@@]1(C)[C@H]2Cc3ccc(O)cc3[C@]1(C)CCN2CC1CC1 (relative stereo) [dl-XIIb, 2-Cyclopropylmethyl-5,9β-dimethyl-2'-hydroxy-9α-methoxy-6,7-benzomorphan] | 1.25 mg/kg | 0.011 mg/kg | 0.16 mg/kg | ED50 [4]: ~0.017 mg/kg
5 | CO[C@@]1(C)[C@H]2Cc3ccc(O)cc3[C@]1(C)CCN2CC1CCC1 (relative stereo) [dl-XIIc, 2-Cyclobutylmethyl-5,9β-dimethyl-2'-hydroxy-9α-methoxy-6,7-benzomorphan] | 2.18 mg/kg |  | 1.25 mg/kg | 
6 | CCO[C@H]1[C@H]2Cc3ccc(O)cc3[C@]1(C)CCN2CC1CC1 (relative stereo) [dl-XIId, 2-Cyclopropylmethyl-9α-ethoxy-2'-hydroxy-5-methyl-6,7-benzomorphan] | 0.33 mg/kg | 0.029 mg/kg | 0.32 mg/kg | 
7 | C=CCO[C@H]1[C@H]2Cc3ccc(O)cc3[C@]1(C)CCN2CC1CC1 (relative stereo) [dl-XIIe, 9α-Allyloxy-2-cyclopropylmethyl-2'-hydroxy-5-methyl-6,7-benzomorphan] | 5.3 mg/kg |  | ~0.63 mg/kg | 
8 | C=CC[C@]12CCN(CC3CC3)[C@H](Cc3ccc(O)cc31)[C@@H]2OC (relative stereo) [dl-XIIm, 5-Allyl-2-cyclopropylmethyl-2'-hydroxy-9α-methoxy-6,7-benzomorphan] | 0.026 mg/kg | 0.046 mg/kg |  | 
9 | CO[C@]1(C)[C@H]2Cc3ccc(O)cc3[C@]1(C)CCN2CC1CC1 (relative stereo) [dl-XIIr, 2-Cyclopropylmethyl-5,9α-dimethyl-2'-hydroxy-9β-methoxy-6,7-benzomorphan] | 1.8 mg/kg |  | 3.5 mg/kg | 
10 | CO[C@@H]1[C@H]2Cc3ccc(O)cc3[C@]1(C)CCN2CC1CC1 (relative stereo) [dl-XIIt, 2-Cyclopropylmethyl-2'-hydroxy-9β-methoxy-5-methyl-6,7-benzomorphan] | ~20 mg/kg | 0.18 mg/kg | ~7 mg/kg | 
11 | COC1C2Cc3ccc(O)cc3C1(C)CCN2CC1CC1 (single isomer, unassigned; (-)) [l-XIIa, (-)-2-Cyclopropylmethyl-2'-hydroxy-9α-methoxy-5-methyl-6,7-benzomorphan] |  |  |  | ED50 Agonist Activity, Phenylquinone Writhing, Mouse [1]: 0.053 mg/kg; ED50 Antagonist Activity, Morphine Antagonism Rat Tail Flick [2]: 0.019 mg/kg; ED50 Antagonist Activity, Oxymorphone Narcosis [4]: 0.017 mg/kg; ED50 Antagonist Activity, Oxymorphone Straub Tail [3]: 0.10 mg/kg; ED50 Agonist Activity, Phenylquinone Writhing, Rat [5]: 0.021 mg/kg
12 | CC(C)=CCN1CCC2(C)c3cc(O)ccc3CC1C2C (stereo not drawn) [Pentazocine, reference compound] |  |  |  | ED50 [4]: 10.1 mg/kg
